What was measured:
[1] = Cytotoxicity against human Huh7.5 cells assessed as decrease in cell viability after 48 hrs by MTT assay; assay type: functional, cell-based; settings: Huh7.5, 48 h
HCT-116 = test: Cytotoxicity against human HCT116 cells assessed as decrease in cell viability after 48 hrs by MTT assay; assay type: functional, cell-based; settings: HCT-116, 48 h
K562 = test: Cytotoxicity against human K562 cells assessed as decrease in cell viability after 48 hrs by MTT assay; assay type: functional, cell-based; settings: K562, 48 h
L02 = test: Cytotoxicity against human LO2 cells assessed as decrease in cell viability after 48 hrs by MTT assay; assay type: ADME, cell-based; settings: L02, 48 h

SMILES	IC50 [1]	IC50 (HCT-116)	IC50 (K562)	IC50 (L02)
C[C@]12O[C@H](C[C@@H](N)[C@H]1O)n1c3ccccc3c3c4c(c5c6ccccc6n2c5c31)CNC4=O	0.4 µM	0.2 µM	0.9 µM	2.7 µM
CC(=O)N[C@@H]1C[C@H]2O[C@@](C)([C@@H]1O)n1c3ccccc3c3c4c(c5c6ccccc6n2c5c31)C(=O)NC4	2.1 µM	1 µM	5.2 µM	24.2 µM
C[C@@H]1O[C@@H](n2c3ccccc3c3c4c(c5c6ccccc6[nH]c5c32)CNC4=O)C[C@@H](N)[C@H]1O	7 µM	5.1 µM	7.7 µM	5.8 µM
CC(=O)N[C@@H]1C[C@H]2O[C@@](C)([C@@H]1O)n1c3ccc(O)cc3c3c4c(c5c6ccccc6n2c5c31)C(=O)NC4	> 100 µM	2.7 µM	8.8 µM	> 100 µM
CC(=O)N[C@@H]1C[C@H](n2c3ccccc3c3c4c(c5c6ccccc6[nH]c5c32)CNC4=O)O[C@@H](C)[C@@H]1O	35.2 µM	> 100 µM	32.4 µM	41.1 µM
CC(=O)c1cccn1[C@@H]1C[C@H]2O[C@@](C)([C@@H]1O)n1c3ccccc3c3c4c(c5c6ccccc6n2c5c31)C(=O)NC4	2.7 µM	3.9 µM	10.5 µM	> 100 µM
C[C@@H]1O[C@@H](n2c3ccccc3c3c4c(c5c6ccccc6[nH]c5c32)CNC4=O)[C@H](O)[C@H](O)[C@H]1O	46 µM	9 µM	> 100 µM	73.8 µM

From ChEMBL document CHEMBL4196147 (J Nat Prod, 2018)
